Reference: patent EP0513997A1, “Antithrombotic compositions” (CHINOIN Gyogyszer és Vegyészeti Termékek Gyára RT., priority 1991, dated 1992)

What was measured:
[1] = system: acified ethanol- and indomethacine- induced ulceration; assay: Acidified ethanol- and indomethacin-induced ulceration; format: in vivo; conditions: rat, in the antiaggregatory dose
Excerpt: The active ingredients according to the present invention, first of all Depogen, have further advantages compared with the widespreadly used ASA. ASA has significant gastrointestinal adverse effects, such as peptic ulcer, gastric haemorrhage. Depogen has no such adverse effect, and what is more, it has a weak ulcus-preventing activity. According to the measurements, in the antiaggregatory dose it exerts a 25-50 % inhibition on the acified ethanol- and indomethacine- induced ulceration in rat.

[2] = system: rabbit platelets; assay: Inhibition of PAF induced serotonine release in platelets; format: cell-based; conditions: release induced by 5 x 10⁻⁸ M of PAF
[3] = system: prostacyclin release from the aorta; assay: In vitro prostacyclin (PGI2) release from the aorta; format: cell-based; conditions: in vitro (Figure 6)
Excerpt: From the point of view of PGI2 release Depogen represents a considerable […] compared to Pentoxifylline, as the ratio of the doses inhibiting platelet aggregation and increasing PGI2 release is lower for Depogen than for Pentoxifylline (Table 6) and thus the effective dose ranges of the two actions are closer to each other in the case of Depogen.

[4] = system: thrombus formation; assay: In vivo thrombus formation on cotton thread in arterio-venous plastic vessel shunt; parameters: species or system anaesthetised rabbits
Procedure: We investigated furthermore the in vivo antithrombotic effect of Depogen on anaesthetised rabbits. Depogen was administered intravenously in a dose range of 2.5-7.5 mg/kg. The vena yugularis was connected with the arteria carotis with the help of a plastic vessel. In the plastic vessel a cotton thread was placed, which served as inductor. The amount of thrombus sticked to the surface of the cotton was weighed in the case of the treated and untreated animals (after Herrmann R.G. et al., Proc. Soc. Exp. Biol. Med. 139, 548-552, 1972.)

[5] = system: thromboxane and prostacyclin level of the blood plasma; assay: Thromboxane and prostacyclin level of the blood plasma after 4 days per os administration; format: in vivo; conditions: rat, determined on the 5th day
Procedure: We investigated the effect of Depogen on the thromboxane and prostacyclin level of the blood plasma, in rat, after 4 days of per os administration in doses of 5 mg/kg and 10 mg/kg. On the 5th day we determined the thromboxane and prostacyclin level of the blood plasma (Table 7).

[6] = system: rabbit platelets; assay: Inhibition of PAF induced platelet aggregation; format: cell-based; conditions: aggregation induced by 1 µM of PAF
[7] = system: rabbit platelets; assay: In vitro rabbit platelet aggregation induced by ADP, collagen, AA or A 23187 Ca ionophor; format: cell-based
Excerpt: We compared on rabbit platelets the in vitro antiaggregatory effect , of acetylsalicylic acid (ASA), salicylic acid (SA). Pentoxifylline (Pentox or Trental), Nospa, Papaverine and Depogen. The aggregation of the rabbit platelets was induced by adenosine diphosphate (ADP), arachidonic acid (AA), Collagen and A 23187 Ca ionophor.

[8] = system: platelet aggregation; assay: Ex vivo platelet aggregation after administration; format: in vivo, rabbits
[9] = Oryctolagus cuniculus, Platelet
[10] = p.o. 10 mg/kg/day during 4 days
[11] = Table 5, unit inferred, aggregation induced by A 23187, read-out: Antiaggregatory Effect A 23187
[12] = Table 5, unit inferred, aggregation induced by AA, read-out: Antiaggregatory Effect AA
[13] = Table 5, unit inferred, aggregation induced by ADP, read-out: Antiaggregatory Effect ADP
[14] = Table 5, unit inferred, aggregation induced by Collagen, read-out: Antiaggregatory Effect Collagen
[15] = aggregation induced by A-23187 Ca ionophor, in vitro, read-out: IC50 rabbit platelet aggregation, A-23187
[16] = aggregation induced by ADP, in vitro, read-out: IC50 rabbit platelet aggregation, ADP
[17] = aggregation induced by Collagen, in vitro, read-out: IC50 rabbit platelet aggregation, Collagen
[18] = aggregation induced by arachidonic acid (AA), in vitro, read-out: IC50 rabbit platelet aggregation, AA
[19] = Oryctolagus cuniculus, Platelet, aggregation induced by A-23187 Ca ionophor, in vitro, read-out: IC50 rabbit platelet aggregation, A-23187
[20] = Oryctolagus cuniculus, Platelet, aggregation induced by ADP, in vitro, read-out: IC50 rabbit platelet aggregation, ADP
[21] = Oryctolagus cuniculus, Platelet, aggregation induced by Collagen, in vitro, read-out: IC50 rabbit platelet aggregation, Collagen
[22] = Oryctolagus cuniculus, Platelet, aggregation induced by arachidonic acid (AA), in vitro, read-out: IC50 rabbit platelet aggregation, AA
[23] = Oryctolagus cuniculus, Platelet, read-out: IC50 rabbit platelet aggregation, A-23187
[24] = Oryctolagus cuniculus, Platelet, read-out: IC50 rabbit platelet aggregation, AA
[25] = Oryctolagus cuniculus, Platelet, read-out: IC50 rabbit platelet aggregation, ADP
[26] = Oryctolagus cuniculus, Platelet, read-out: IC50 rabbit platelet aggregation, Collagen

SMILES	IC50 [2, 9] [µM]	IC50 [6, 9] [µM]	IC50 [7, 11] [µM]	IC50 [7, 12] [µM]	IC50 [7, 13] [µM]	IC50 [7, 14] [µM]	IC50 [7, 15] [µM]	IC50 [7, 16] [µM]	IC50 [7, 17] [µM]	IC50 [7, 18] [µM]	IC50 [7, 19] [µM]	IC50 [7, 20] [µM]	IC50 [7, 21] [µM]	IC50 [7, 22] [µM]	IC50 [7, 23] [µM]	IC50 [7, 24] [µM]	IC50 [7, 25] [µM]	IC50 [7, 26] [µM]	further results
CCOc1ccc(CC2=NCCc3cc(OCC)c(OCC)cc32)cc1OCC [Depogen, (3′,4′-diethoxy-benzyl)-6,7-diethoxy-3,4-dihydroisoquinolinium theophyllin-7-acetate]	118	684	228	240	247	140	230	247	140	240									inhibition on the acified ethanol- and indomethacine- induced ulceration [1]: 25-50%; prostacyclin release from the aorta [3]: significantly enhances; Inhibitory Effect % in vivo thrombus formation ([4]; dose 2.5 mg/kg intravenously): 25± 3%; Inhibitory Effect % in vivo thrombus formation ([4]; dose 5.0 mg/kg intravenously): 45± 5%; Inhibitory Effect % in vivo thrombus formation ([4]; dose 7.5 mg/kg intravenously): 60± 7%; PGI2 ([5]; p.o. 5 mg/kg/day during 4 days): 206.4± 11.2 pg/ml of plasma; PGI2/TxA2 ([5]; p.o. 5 mg/kg/day during 4 days): 4.2; TxA2 ([5]; p.o. 5 mg/kg/day during 4 days): 48.7± 3.9 pg/ml of plasma; PGI2 [5, 10]: 363.8± 19.3 pg/ml of plasma; PGI2/TxA2 [5, 10]: 11; TxA2 [5, 10]: 33.7± 3.6 pg/ml of plasma; antiaggregatory effect, times stronger than that of ASA ([7]; compared with ASA, in vitro): 10-20 times; inhibition at 2.5 mg/kg ([8]; Oryctolagus cuniculus, Platelet, iv, dose 2.5 mg/kg intravenously, read-out: Inhibitory Effect % ex vivo aggregation): 30 ± 4%; inhibition at 5 mg/kg ([8]; Oryctolagus cuniculus, Platelet, iv, dose 5.0 mg/kg intravenously, read-out: Inhibitory Effect % ex vivo aggregation): 45 ± 5%; inhibition at 7.5 mg/kg ([8]; Oryctolagus cuniculus, Platelet, iv, dose 7.5 mg/kg intravenously, read-out: Inhibitory Effect % ex vivo aggregation): 55 ± 6%; antiaggregatory effect in ex vivo experiments ([8]; after oral and intravenous administration (Figures 3 and 4)): significant antiaggregatory effect
CC(=O)Oc1ccccc1C(=O)O [ASA, acetylsalicylic acid, reference compound]											2440	4050	2610	780					
COc1ccc(Cc2nccc3cc(OC)c(OC)cc23)cc1OC [Papaverine, 1-(3′,4′-dimethoxy-benzyl)-6,7-dimethoxy-isoquinoline]	48.2	656													1060	130	190	270	IC50 ([7]; Oryctolagus cuniculus, Platelet, read-out: Antiaggregatory Effect A 23187): 1060 µM; IC50 ([7]; Oryctolagus cuniculus, Platelet, read-out: Antiaggregatory Effect AA): 130 µM; IC50 ([7]; Oryctolagus cuniculus, Platelet, read-out: Antiaggregatory Effect ADP): 190 µM; IC50 ([7]; Oryctolagus cuniculus, Platelet, read-out: Antiaggregatory Effect Collagen): 270 µM
O=C(O)c1ccccc1O [Salicylic acid, salicylic acid, reference compound]															2610	1010	1380	1300	
CC(=O)CCCCn1c(=O)c2c(ncn2C)n(C)c1=O [Pentoxifylline, reference compound]	800	1000									2770	2660	2050	1870					IC50 ([7]; Oryctolagus cuniculus, Platelet, Table 5, unit inferred, aggregation induced by AA, read-out: Antiaggregatory Effect AA): 1870 µM; IC50 ([7]; Oryctolagus cuniculus, Platelet, Table 5, unit inferred, aggregation induced by ADP, read-out: Antiaggregatory Effect ADP): 2660 µM; IC50 ([7]; Oryctolagus cuniculus, Platelet, Table 5, unit inferred, aggregation induced by Collagen, read-out: Antiaggregatory Effect Collagen): 2050 µM
CCOc1ccc(CC2=NCCc3cc(OCC)c(OCC)cc32)cc1OCC [Nospa, 1-(3-,4′-diethoxybenzyl)-6,7-diethoxy-3,4-dihydro-iso-quinoline]			840	810	740	580	840	740	580	810									IC50 [2]: 96 µM; IC50 [6]: 756 µM
